Data set [1] can be described thus: Absorption and fluorescence photophysical characterization in organic solvents. Format: physicochemical. The procedure: UV–Vis spectra were recorded on a Perkin-Elmer Lambda 25 spectrophotometer (Perkin-Elmer, Waltham, MA, USA) using Hellma Analytics quartz cuvettes (1 cm path length; Hellma Analytics, Müllheim, Germany). Spectral data are reported as maximum absorption wavelength (λmax, nm) and molar absorptivity (ε, M^−1·cm^−1). The latter was calculated according to the Lambert–Beer law from calibration plots of absorbance at λmax versus known dye concentrations.
Ultraviolet–visible absorption spectra were obtained at room temperature using a PerkinElmer Lambda 25 spectrophotometer, while fluorescence emission data were collected on a Horiba Jobin Yvon FluoroMax-4 fluorometer. Singlet oxygen and photostability tests and measurements were carried out on a BioRad xMark microplate reader (Bio-Rad, Hercules, CA, USA).
[…] All stock solutions were prepared at 0.67 mM concentration and stored in the dark at 4 °C until further use. For spectroscopic characterization, 1.0 µM stock solutions of the squaraine dyes in dimethyl sulfoxide were serially diluted into a series of solvents (chloroform, dimethyl sulfoxide, methanol, and phosphate buffer) to obtain at least five defined concentrations. The absorption spectra of these dilutions were recorded and used to calculate molar extinction coefficients according to the Beer–Lambert law. Additional working solutions at a 1.0 µM concentration were prepared in dimethyl sulfoxide and buffer, and 1.0% Triton X-100 was added where required to investigate dye aggregation.
The emission areas were integrated, and relative quantum yields were calculated following established methodologies, considering both absorbance at the excitation wavelength and the refractive index of the solvent. The calculation was performed using Equation (2), where “dye” and “ref” denote the squaraine dyes and the reference compound, respectively; I corresponds to the integrated emission intensity, A to the absorbance value at the excitation wavelength, and η to the refractive index of the solvent:(2) ΦF(dye)= ΦF(Std)Idye/Iref Aref/Adye ηdye2/ηref2

The nature of data set [2]: Photophysical properties in phosphate buffer in the absence of HSA. Conditions: phosphate buffer (pH 7.4). Format: physicochemical. The procedure: Squaraine dyes were dissolved in dimethyl sulfoxide, whereas zinc phthalocyanine required dimethylformamide as a solvent. All stock solutions were prepared at 0.67 mM concentration and stored in the dark at 4 °C until further use. For spectroscopic characterization, 1.0 µM stock solutions of the squaraine dyes in dimethyl sulfoxide were serially diluted into a series of solvents (chloroform, dimethyl sulfoxide, methanol, and phosphate buffer) to obtain at least five defined concentrations. The absorption spectra of these dilutions were recorded and used to calculate molar extinction coefficients according to the Beer–Lambert law. Additional working solutions at a 1.0 µM concentration were prepared in dimethyl sulfoxide and buffer, and 1.0% Triton X-100 was added where required to investigate dye aggregation.
For fluorometric experiments, the squaraine stock solutions were initially prepared in dimethylformamide and subsequently diluted with phosphate buffer for the protein–dye interaction analysis. Human serum albumin stock solution was then added to these mixtures, while keeping the dye concentration fixed at 2.0 µM and varying the protein concentration from 0 to 3.0 µM (0.0 to 3.0 µM for squaraines 5, 9, and 11, and from 0 to 6.0 µM for squaraine 13). Fluorescence intensities of the resulting solutions were recorded after 0, 3, and 24 h of incubation with the protein. The excitation wavelengths and excitation/emission slit widths used for the measurements were optimized for each dye, as listed in Table 6.

In data set [3] the test system is prostate adenocarcinoma (PC-3) cell line. Kind of data set: MTT dark and light-induced cytotoxicity in PC-3. It counts as cell-based, human. The settings on record: for pIC50: Homo sapiens, 24 h incubation. The procedure: For potential applicability as photosensitizers in PDT, these candidates are expected to display cytotoxic effects only after photoactivation, namely, and preferably restricted to target tissue cells, without inducing damage to healthy counterparts. To evaluate this, prostate adenocarcinoma PC-3 cells and non-tumoral NHDF fibroblasts were incubated with increasing concentrations of the squaraine dyes for 24 h. Subsequently, the cells were irradiated using an LED system centered at 663 nm, a wavelength close to the absorption maximum of the monomeric dye forms. Twenty-four hours post-irradiation, cellular metabolic activity was assessed by the MTT assay.
The in cell photocytotoxicity of the squaraine dyes was assessed using the MTT assay. When cells reached 90–95% confluence, they were trypsinized using a trypsin-EDTA solution (0.125 g/L trypsin, 0.02 g/L EDTA), counted via trypan-blue exclusion in a Neubauer chamber, and diluted to 2 × 10^4 cells/mL. A 100 µL aliquot of this suspension was seeded into each well of 96-well plates and incubated for 48 h to allow for cell attachment and resumption of proliferation.
After this period, the medium was removed, and cells were treated with various concentrations of the squaraine dyes (0.01, 0.1, 1, 2.5, 5, and 10 µM) in the appropriate culture medium. […] Negative controls consisted of cells exposed only to culture medium. All experiments were performed in quadruplicate and independently repeated.
After 24 h of exposure to the dyes, the cells were subjected to two different irradiation conditions: the first group was not irradiated and was protected from ambient light for 21 min, and the second group was irradiated for 7 min.
Twenty-four hours post-irradiation, the culture medium was removed, cells were washed with 100 µL PBS, and 100 µL of MTT solution (5 mg/mL in serum- and antibiotic-free medium) was added per well. Cells were incubated for 4 h at 37 °C, after which the supernatant was discarded, and the formazan crystals were solubilized in dimethyl sulfoxide. Absorbance was measured at 570 nm using a Bio-Rad xMark microplate reader.
Cell viability was expressed as the percentage of absorbance in treated samples relative to the untreated negative control. Data were statistically analyzed by ordinary two-way ANOVA followed by the Šidák multiple comparisons test, comparing irradiated and non-irradiated conditions at the same concentration, with differences considered statistically significant at a p-value < 0.05. Half-maximal inhibitory concentration values reported in this work were obtained by fitting the data to a sigmoidal model with a 95% confidence interval. All assays were performed in quadruplicate and replicated independently at least twice. Phototoxicity and tumor selectivity ratios were quantified according to Equations (6) and (7):(6) PTR = IC50 dark condition/IC50 irradiated condition (7) TSR = IC50 for NHDF cells under irradiated condition/IC50 for cancer cell line under irradiated condition
Irradiation was performed using a light-emitting diode array centered at 663 ± 8 nm to match the absorption maximum of the dyes. The LED (Roithner; 8.3 mW radiant flux) was integrated into flat-bottom 96-well plates and powered by a regulated current source. The irradiance was 15.8 mW/cm^2, and the total energy delivered per well was 3.49 J after 7 min, ensuring precise light dosing for all experiments.

[4] abbreviates: DMSO, relative to zinc phthalocyanine.
The mark [5] stands for this setting: light or radiation study, PC-3, Light, 7 min LED 663 nm, MTT 24 h post-irradiation.

pIC50: −log10 of the molar value.

In the case of `CC1(C)C(=CC2=C([O-])C(=CC3=[N+](CCCc4ccccc4)c4ccccc4C3(C)C)C2=O)N(CCCc2ccccc2)c2ccccc21` [Dye 5, 4-[3,3-Dimethyl-1-(3-phenylpropyl)-indol-1-ium-2-ylmethylene]-2-[3,3-dimethyl-1-(3-phenylpropyl)indolin-2-ylidenemethyl]-3-oxocyclobut-1-en-1-olate], the “Stokes shift (ΔS)” value in data set [1] (DMSO) is recorded as 13 nm; in data set [1] (chloroform (CFM)), 1 nm; in data set [1] (methanol (MeOH)), 13 nm; in data set [2] it was 91 nm. Besides, the “absorption maximum (λabs)” value in data set [1] (DMSO) was determined as 646 nm; in data set [1] (chloroform (CFM)), 638 nm; in data set [1] (methanol (MeOH)) it was 631 nm; in data set [2] it was 605 nm. The “emission maximum (λem)” value was 659 nm in data set [1] (DMSO), 639 nm in data set [1] (chloroform (CFM)), 644 nm in data set [1] (methanol (MeOH)) and 696 nm in data set [2]. Also, the “molar absorption coefficient (ε)” value in data set [1] (DMSO) is 293000 M⁻¹ cm⁻¹; in data set [1] (chloroform (CFM)), 428000 M⁻¹ cm⁻¹; in data set [1] (methanol (MeOH)) it was 422000 M⁻¹ cm⁻¹; in data set [2] it was 89000 M⁻¹ cm⁻¹. Also, the “fluorescence quantum yield (ΦF)” value is reported as 1.00 in data set [1] (setting [4]), 0.46 in data set [1] (chloroform (CFM)), 0.16 in data set [1] (methanol (MeOH)) and 0.02 in data set [2]. The pIC50 in data set [3] (setting [5]) is 6.05; in data set [3] (PC-3, Dark, MTT 24 h later), under 5.00. Further, the reduction in viability entry in data set [3] (PC-3 cells, irradiated, 1.0 μM) is reported as “approximately 60%”.

Turning to `CC1(C)C(=CC2=C(NCc3ccc4ccc5cccc6ccc3c4c56)C(=CC3=[N+](CCCc4ccccc4)c4ccccc4C3(C)C)C2=O)N(CCCc2ccccc2)c2ccccc21.[I-]` [Dye 14, 2-({3-[3,3-dimethyl-1-(3-phenylpropyl)indolin-2-ylidenemethyl]-4-oxo-2-[(pyren-1-ylmethyl)amino]cyclobut-2-en-1-ylidene}methyl)-3,3-dimethyl-1-(3-phenylpropyl)-indol-1-ium Iodide], the “Stokes shift (ΔS)” value in data set [1] (DMSO) amounted to 15 nm; in data set [1] (chloroform (CFM)) it was 13 nm; in data set [1] (methanol (MeOH)), 13 nm. Besides, the “absorption maximum (λabs)” value in data set [1] (DMSO) turned out to be 661 nm; in data set [1] (chloroform (CFM)), 658 nm; in data set [1] (methanol (MeOH)), 650 nm; in data set [2] it was 672 nm. Besides, the “emission maximum (λem)” value in data set [1] (DMSO) came out at 676 nm; in data set [1] (chloroform (CFM)), 671 nm; in data set [1] (methanol (MeOH)) it was 663 nm. In addition, the “molar absorption coefficient (ε)” value in data set [1] (DMSO) is 197000 M⁻¹ cm⁻¹; in data set [1] (chloroform (CFM)), 281000 M⁻¹ cm⁻¹; in data set [1] (methanol (MeOH)) it was 285000 M⁻¹ cm⁻¹; in data set [2], 67000 M⁻¹ cm⁻¹. Further, the “fluorescence quantum yield (ΦF)” value amounted to 0.05 in data set [1] (setting [4]), 0.06 in data set [1] (chloroform (CFM)), 0.01 in data set [1] (methanol (MeOH)) and 0.00 in data set [2]. In addition, the pIC50 is under 5.00 in data set [3] (setting [5]) and under 5.00 in data set [3] (PC-3, Dark, MTT 24 h later).

For orientation: pIC50 means the IC50 on a negative log10 scale, so that one unit is a factor of ten. A low value points to a large IC50.
